From patent publication US6251919A, “Heterocyclic substituted aniline calcium channel blockers” (Warner-Lambert, priority 1999, dated 2001)
Read-outs that look alike come from different tables or passages of the source. Bridges are numbered along the chain shown (N, C = ends). Where no end group is shown, it is not given here.

Key:
[1] = system: models of ischemia and pain; details: Bowersox et al. 1994; cited from earlier work
[2] = system: N-type calcium channel; details: Bowersox et al. 1994; cited from earlier work
[3] = system: DBA/2 mice; assay: Audiogenic seizure (anticonvulsant) test in DBA/2 mice; type: in vivo; details: Mus musculus, intravenous, read-out: DBA/2 mice % Protection
Protocol: A compound of the present invention was dissolved in water using 10% (weight/volume) Emulphor (GAF Corp., Wayne, N.J.) surfactant. Substances were administered by intravenous injection into the retro-orbital venous sinus. All testing was performed fifteen minutes or forty-five minutes after drug injection. All the male mice, 3-4 weeks old were obtained from Jackson Laboratories Bar Harbour, Me. Immediately before anticonvulsant testing, mice were placed upon a wire mesh, four inches square suspended from a steel rod. The square was slowly inserted through 180 degree and mice observed for thirty seconds. Any mouse falling from the wire mesh was scored as ataxia.
Mice were placed into an enclosed acrylic plastic chamber (21 cm height, approximately 30 cm diameter) with a high-frequency speaker (4 cm diameter) in the center of the top lid. An audio signal generator (Protek model B-810) was used to produe a continuous sinusoidal tone that was swept linearly in frequency between 8 kHz and 16 kHz once each 10 msec. The average sound pressure level (SPL) during stimulation was approximately 100 dB at the floor of the chamber. Mice were placed within the chamber and allowed to acclimatize for one minute. DBA/2 mice in the vehicle-treated group responded to the sound stimulus (applied until tonic extension occurred, or for a maximum of sixty seconds) with a characteristic seizure sequence consisting of wild running followed by clonic seizures and later by tonic extension, and finally by respiratory arrest and death in 80% or more of the mice. In vehicle-treated mice, the entire sequence of seizures to respiratory arrest lasts approximately 15-20 seconds.
The incidence of all the seizure phases in the drug-treated and vehicle-treated mice was recorded, and the occurrence of tonic seizures were used for calculating anticonvulsant ED50 values by probit analysis. Mice were used only once for testing at each time and dose point.

[4] = target: T1, N-type Ca^2+ channel in IMR-32 cells (Homo sapiens, UniProt Q00975); assay: N-type Ca2+ channel blockade in IMR-32 cells (fluorescent Ca2+ indicator Indo-1); type: cell-based; details: 5 μM nitrendipine present; for inhibition at 1 µM: IMR-32, 1 μM; for inhibition at 10 µM: IMR-32, 10 μM
T1 construct: host or cells: IMR-32 (differentiated with dibutyryl cAMP and bromodeoxyuridine)

[5] = system: male Swiss-Webster mice; assay: Anti-Writhing Test in Mice (AW), acetic acid; type: in vivo
Description: Anti-Writhing Test in Mice (AW) Test Protocol
The purpose of this test is to evaluate drugs for analgesic-like activity. The AW test determines the effect of drugs on the response to a presumed painful stimulus in mice and is used as a preliminary in vivo procedure for the identification of potential analgesic agents.
Known analgesics with low, moderate, or high efficacy in man allow mice to tolerate intra-peritoneal administration of dilute acetic acid as evidenced by lesser incidence of writhing movements. The AW test measures the nociceptive response to acetic acid in mice and provides an objective, reliable, and quantitative estimate of efficacy and potency of potential analgesic compounds. […]
Compounds are dissolved or suspended in physiological saline containing 2% Emulphor. […] Drug doses are expressed as the active moiety and are normally administered to mice (10, 30, and 100 mg/kg IP, SC, PO, or IM) in a volume of 10 mL/kg, 1 hour prior to testing; ICV doses (in μg/kg) are administered in a volume of 0.5 mL/kg, 5 minutes prior to testing. […]
Mice are treated with a dilute solution of acetic acid (0.6%, 10 mL/kg IP) which elicits writhing. […] Writhing movements (abdominal contractions, stretching of the torso and hind legs, and concave arching of the back) are counted for 5 minutes commencing 7 minutes after acetic acid administration. […]

T1 sequence (Q00975 whole entry): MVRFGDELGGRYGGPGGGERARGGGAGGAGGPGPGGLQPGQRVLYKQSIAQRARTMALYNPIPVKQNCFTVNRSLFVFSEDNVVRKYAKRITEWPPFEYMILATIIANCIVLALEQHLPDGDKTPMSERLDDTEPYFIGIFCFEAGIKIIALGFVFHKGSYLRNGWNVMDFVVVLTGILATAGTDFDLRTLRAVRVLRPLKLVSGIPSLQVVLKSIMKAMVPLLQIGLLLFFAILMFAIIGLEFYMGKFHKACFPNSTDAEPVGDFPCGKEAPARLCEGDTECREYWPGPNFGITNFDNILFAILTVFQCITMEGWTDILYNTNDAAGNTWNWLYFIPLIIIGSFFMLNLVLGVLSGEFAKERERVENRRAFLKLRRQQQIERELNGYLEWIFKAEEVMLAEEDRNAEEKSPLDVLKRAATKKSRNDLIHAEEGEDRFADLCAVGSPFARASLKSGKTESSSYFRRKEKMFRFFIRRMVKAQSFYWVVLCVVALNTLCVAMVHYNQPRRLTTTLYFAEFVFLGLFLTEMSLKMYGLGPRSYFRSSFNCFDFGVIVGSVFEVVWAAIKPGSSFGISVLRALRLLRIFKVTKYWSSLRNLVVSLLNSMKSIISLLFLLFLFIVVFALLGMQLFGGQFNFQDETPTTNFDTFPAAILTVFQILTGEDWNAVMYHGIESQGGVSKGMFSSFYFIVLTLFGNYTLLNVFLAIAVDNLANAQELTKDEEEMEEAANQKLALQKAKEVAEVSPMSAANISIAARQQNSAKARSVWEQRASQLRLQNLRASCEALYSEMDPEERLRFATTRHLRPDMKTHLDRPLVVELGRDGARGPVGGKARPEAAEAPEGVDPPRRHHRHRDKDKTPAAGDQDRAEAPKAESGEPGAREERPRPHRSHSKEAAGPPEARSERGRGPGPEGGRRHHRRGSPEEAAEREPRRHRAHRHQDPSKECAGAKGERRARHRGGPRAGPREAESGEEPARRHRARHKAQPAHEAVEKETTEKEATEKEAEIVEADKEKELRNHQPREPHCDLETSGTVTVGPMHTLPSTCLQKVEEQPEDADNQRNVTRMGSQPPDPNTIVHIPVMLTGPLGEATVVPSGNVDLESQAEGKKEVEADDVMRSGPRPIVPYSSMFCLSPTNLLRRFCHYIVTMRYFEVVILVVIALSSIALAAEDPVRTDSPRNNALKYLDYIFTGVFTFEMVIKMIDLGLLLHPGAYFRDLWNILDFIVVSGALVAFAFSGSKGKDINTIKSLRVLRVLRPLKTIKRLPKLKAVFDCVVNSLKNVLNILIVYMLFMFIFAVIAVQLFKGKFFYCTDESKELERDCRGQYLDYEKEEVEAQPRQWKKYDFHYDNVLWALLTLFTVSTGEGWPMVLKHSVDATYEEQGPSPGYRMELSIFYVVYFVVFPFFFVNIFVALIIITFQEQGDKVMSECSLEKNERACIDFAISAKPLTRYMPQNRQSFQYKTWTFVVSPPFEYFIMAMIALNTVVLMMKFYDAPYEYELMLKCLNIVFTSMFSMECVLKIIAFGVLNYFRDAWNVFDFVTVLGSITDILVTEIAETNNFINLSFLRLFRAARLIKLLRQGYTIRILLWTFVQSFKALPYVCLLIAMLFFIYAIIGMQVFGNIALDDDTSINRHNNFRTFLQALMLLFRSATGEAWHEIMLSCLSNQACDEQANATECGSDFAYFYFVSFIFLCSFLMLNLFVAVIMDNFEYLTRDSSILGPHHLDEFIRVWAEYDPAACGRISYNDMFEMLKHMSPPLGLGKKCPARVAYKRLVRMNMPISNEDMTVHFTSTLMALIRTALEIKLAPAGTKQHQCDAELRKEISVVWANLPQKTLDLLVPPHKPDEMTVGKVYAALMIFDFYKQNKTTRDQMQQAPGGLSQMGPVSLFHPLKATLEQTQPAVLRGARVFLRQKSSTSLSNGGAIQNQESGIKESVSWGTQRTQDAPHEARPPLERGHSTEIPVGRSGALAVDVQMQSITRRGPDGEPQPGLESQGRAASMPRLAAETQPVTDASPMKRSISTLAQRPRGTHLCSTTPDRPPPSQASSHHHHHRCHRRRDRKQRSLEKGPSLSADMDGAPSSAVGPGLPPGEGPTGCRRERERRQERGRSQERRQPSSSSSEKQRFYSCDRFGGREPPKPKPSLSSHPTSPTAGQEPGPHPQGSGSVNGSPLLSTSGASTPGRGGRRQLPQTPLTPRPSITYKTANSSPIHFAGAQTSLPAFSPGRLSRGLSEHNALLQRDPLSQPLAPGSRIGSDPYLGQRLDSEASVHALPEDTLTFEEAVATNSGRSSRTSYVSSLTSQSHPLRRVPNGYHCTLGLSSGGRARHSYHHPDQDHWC

For “SNX-111: selective N-type calcium channel blocker (CKGKGAKCSRLMYDCCTGSCRSGKC-NH2; disulfide 1-16, 15-25, 8-20; UniProt P05484 46-70, looked up)”, the “activity in models of ischemia and pain” value [1] is given as “demonstrated activity in a number of models of ischemia and pain” and the “N-type calcium channel blockade selectivity” value [2] is given as “selective N-type calcium channel blocker”.

In the case of `CC(C)=CCN(c1ccc(OCc2ccccc2)cc1)C1CCN(Cc2ccc(O)cc2)CC1` [Example 5, 4-{4-[(4-Benzyloxy-phenyl)-(3-methyl-but-2-enyl)-amino]-piperidin-1-ylmethyl}-phenol], the responders at 10 mg/kg [3] is reported as 80%, the inhibition at 1 µM [4] is reported as 47% and the inhibition at 10 µM [4] is reported as 100%.

`CC(C)=CCN(c1ccc(OCc2ccccc2)cc1)C1CCN(CCC(C)O)CC1` (stereo not shown) [Example 20, 4-{4-[(4-Benzyloxy-phenyl)-(3-methyl-but-2-enyl)-aminol]-piperidin-1-yl}-butan-2-ol] showed a responders at 10 mg/kg [3] of 40% and an IC50 [4] of 3000 nM.

In the case of `CC(C)=CCN(c1ccc(OCc2ccccc2)cc1)C1CCN(Cc2ccc[nH]2)CC1` [Example 7, (4-Benzyloxy-phenyl)-(3-methyl-but-2-enyl)-[1-(1H-pyrrol-2-ylmethyl)-piperidin-4-yl]-amine], the responders at 10 mg/kg [3] is reported as 100% and the responders at 30 mg/kg ([3]; 30 mg/kg) is reported as 100%.

In the case of `CC(C)=CCN(c1ccc(OCc2ccccc2)cc1)C1CCN(CCC(C)C)CC1` [Example 1, (4-Benzyloxy-phenyl)-(3-methyl-but-2-enyl)-[1-(3-methyl-butyl)-piperidin-4-yl]-amine], the responders at 30 mg/kg ([3]; 30 mg/kg) is reported as 100%, the inhibition at 1 µM [4] is reported as 40% and the inhibition at 10 µM [4] is reported as 79%.

`CC(C)=CCN(c1ccc(OCc2ccccc2)cc1)C1CCN(Cc2ccc(N(C)C)cc2)CC1` [Example 6, (4-Benzyloxy-phenyl)-[1-(4-dimethylamino-benzyl)-piperidin-4-yl]-(3-methyl-but-2-enyl)-amine] gave a responders at 10 mg/kg [3] of 100% and a responders at 30 mg/kg ([3]; 30 mg/kg) of 100%.

In the case of `CC(C)=CCN(c1ccc(OCc2ccccc2)cc1)C1CCN(CCC(C)(C)C)CC1` [Example 2, (4-Benzyloxy-phenyl)-[1-(3,3-dimethyl-butyl)-piperidin-4-yl]-(3-methyl-but-2-enyl)-amine], the responders at 10 mg/kg [3] is reported as 80%, the inhibition at 1 µM [4] is reported as 62% and the inhibition at 10 µM [4] is reported as 93%.

`CC(C)=CCN(c1ccc(OCc2ccccc2)cc1)C1CCN(Cc2ccccc2)CC1` [Example 19, (4-Benzyloxy-phenyl)-(1-benzyl-piperidin4-yl)-(3-methyl-but-2-enyl)-amine] gave a responders at 10 mg/kg [3] of 80% and an IC50 [4] of 720 nM.

`CC(C)=CCN(c1ccc(OCc2ccccc2)cc1)C1CCN(Cc2c[nH]cn2)CC1` [Example 8, (4-Benzyloxy-phenyl)-[1(1H-imidazol-4-ylmethyl)-piperidin-4-yl]-(3-methyl-but-2-enyl)-amine] showed a responders at 10 mg/kg [3] of 60%, an inhibition at 1 µM [4] of 16% and an inhibition at 10 µM [4] of 71%.

For `CC(C)=CCN(c1ccc(OCc2ccccc2)cc1)C1CCN(C(=O)[C@@H](O)CC(C)C)CC1` [Example 44, (S)-1-{4-[(4-Benzyloxy-phenyl)-(3-methyl-but-2-enyl)-amino]-piperidin-1-yl}-2-hydroxy-4-methyl-pentan-1-one], the responders at 30 mg/kg ([3]; 30 mg/kg) was 100%, the “Anti-Writhing % Protection” value ([5]; 10 mg/kg) was 30% and the “Anti-Writhing % Protection” value ([5]; 30 mg/kg) was 100%. For the same compound, the inhibition at 1 µM [4] was 64% and the inhibition at 10 µM [4] was 107%.

Work on `CC(C)=CCN(c1ccc(OCc2ccccc2)cc1)C1CCN(C(=O)C2CN(C(C)C)CCN2CCC(C)C)CC1` (stereo not shown) [Example 15, {4-[(4-Benzyloxy-phenyl)-(3-methyl-but-2-enyl)-amino]-piperidin-1-yl}-[4-isopropyl-1-(3-methyl-butyl)-piperazin-2-yl]-methanone] yielded a responders at 30 mg/kg ([3]; 0.75 h, 30 mg/kg (45 min)) of 100%, a responders at 10 mg/kg [3] of 20% and an inhibition at 1 µM [4] of 51%. For the same compound, the inhibition at 10 µM [4] was 92%.

In the case of `CC(C)CCN(c1ccc(OCC2CCCCC2)cc1)C1CCN(CCC(C)O)CC1` (stereo not shown) [Example 41, 4-{4-[(4-Cyclohexylmethoxy-phenyl)-(3-methyl-butyl)-amino]-piperidin-1-yl}-butan-2-ol], the IC50 [4] is reported as 1500 nM.

`CC(C)=CCN(c1ccc(CCC(C)(C)C)cc1)C1CCN(Cc2ccc[nH]2)CC1` [Example 47, [4-(3,3-Dimethyl-butyl)-phenyl]-(3-methyl-but-2-enyl)-[1-(1H-pyrrol-2-ylmethyl)-piperidin-4-yl]-amine] showed an IC50 [4] of 900 nM.

Compound `CC(C)=CCN(c1ccc(C(C)C)cc1)C1CCN(Cc2ccc[nH]2)CC1` [Example 33, (4-Isopropyl-phenyl)-(3-methyl-but-2-enyl)-[1-(1H-pyrrol-2-ylmethyl)-piperidin-4-yl]-amine] has an inhibition at 1 µM [4] of 54% and an inhibition at 10 µM [4] of 98%.

Work on `CC(C)=CCN(c1ccc(OCc2ccccc2)cc1)C1CCN(C(=O)C2CCCC(C)N2CCC(C)C)CC1` (stereo not shown) [Example 16, {4-[(4-Benzyloxy-phenyl)-(3-methyl-but-2-enyl)-amino]-piperidin-1-yl}-[6methyl-1-(3-methyl-butyl)-piperidin-2-yl]-methanone] yielded an inhibition at 1 µM [4] of 45% and an inhibition at 10 µM [4] of 78%.
